Values quoted from earlier work, collected in patent US10238717B2 (Latitude Pharmaceuticals, Inc., priority 2014, dated 2019).
Read-outs that look alike come from different tables or passages of the source.

Compound | Concentration of sugar in water at saturation (20° C.) | Concentration of sugar in water at saturation (25° C.) | also measured
OC[C@H]1O[C@H](O[C@H]2O[C@H](CO)[C@@H](O)[C@H](O)[C@H]2O)[C@H](O)[C@@H](O)[C@@H]1O [trehalose] | about 68.9 % w/v | – | –
OC[C@@H](O)[C@@H](O)[C@H](O)[C@H](O)CO [mannitol] | – | – | Concentration of sugar in water at saturation (temperature not given): about 25 % w/v
OC[C@H]1O[C@@H](O[C@H]2[C@H](O)[C@@H](O)C(O)O[C@@H]2CO)[C@H](O)[C@@H](O)[C@H]1O (some centres unmarked) [lactose] | – | about 21.6 % w/v | –
OC[C@@H](O)[C@@H](O)[C@H](O)[C@@H](O)CO [sorbitol] | about 22 % w/v | – | –
OC[C@H]1O[C@@](CO)(O[C@H]2O[C@H](CO)[C@@H](O)[C@H](O)[C@H]2O)[C@@H](O)[C@@H]1O [sucrose] | – | about 200 % w/v | –
